Test results reported in patent publication US8729064B2, “Heteroaromatic and aromatic piperazinyl azetidinyl amides as monoacylglycerol lipase inhibitors” (Janssen Pharmaceutica, NV, priority 2009, dated 2014).

Biological target: T1, MGL activity in HeLa cell homogenate (Homo sapiens, UniProt Q99685)
T1 construct: HeLa cells were homogenated with a Polytron; endogenous in cells; host or cells: HeLa cell homogenate
T1 sequence (Q99685 1-303): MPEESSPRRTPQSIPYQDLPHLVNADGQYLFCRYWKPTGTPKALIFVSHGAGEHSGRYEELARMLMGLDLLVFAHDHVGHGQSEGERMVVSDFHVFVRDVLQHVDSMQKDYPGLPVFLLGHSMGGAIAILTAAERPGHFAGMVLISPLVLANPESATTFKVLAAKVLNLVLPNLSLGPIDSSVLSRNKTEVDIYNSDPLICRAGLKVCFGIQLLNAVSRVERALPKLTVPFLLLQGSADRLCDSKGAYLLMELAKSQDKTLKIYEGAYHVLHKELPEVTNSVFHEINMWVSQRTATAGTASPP
Experiment: 2-AG Accumulation Assay in HeLa cell homogenate
Type: biochemical
Conditions: compound 1 μM, accumulated 2-AG relative to MAFP 2-AG x100

Example 4 % MAFP @ 1 μM	SMILES
19.9 % MAFP	CC(C)(C)c1nc2ccc(C(=O)N3CC(N4CCN(c5ccccn5)CC4)C3)cc2o1 [Compound 19, (2-tert-Butyl-benzooxazol-6-yl)-[3-(4-pyridin-2-yl-piperazin-1-yl)-azetidin-1-yl]-methanone]
30.6 % MAFP	O=C(c1cccc2nc(-c3ccc(F)cc3)oc12)N1CC(N2CCN(c3ccccn3)CC2)C1 [Compound 6, [2-(4-Fluoro-phenyl)-benzooxazol-7-yl]-[3-(4-pyridin-2-yl-piperazin-1-yl)-azetidin-1-yl]-methanone]
39.7 % MAFP	O=C(c1ccc2nc(C3CCCCC3)oc2c1)N1CC(N2CCN(c3ccccn3)CC2)C1 [Compound 2, (2-Cyclohexyl-benzooxazol-6-yl)-[3-(4-pyridin-2-yl-piperazin-1-yl)-azetidin-1-yl]-methanone]
45.7 % MAFP	O=C(c1cccc2nc(-c3cccc(F)c3)oc12)N1CC(N2CCN(c3ccccn3)CC2)C1 [Compound 3, [2-(3-Fluoro-phenyl)-benzooxazol-7-yl]-[3-(4-pyridin-2-yl-piperazin-1-yl)-azetidin-1-yl]-methanone]

Same assay, conditions: compound 10 μM, accumulated 2-AG relative to MAFP 2-AG x100

Example 4 % MAFP @ 10 μM	SMILES
67.8 % MAFP	CC(C)Cn1c(COc2ccccc2)cc2cc(C(=O)N3CC(N4CCN(c5ccccn5)CC4)C3)ccc21 [Compound 9, (1-Isobutyl-2-phenoxymethyl-1H-indol-5-yl)-[3-(4-pyridin-2-yl-piperazin-1-yl)-azetidin-1-yl]-methanone]
86.9 % MAFP	COc1cccc(-c2nc3cc(C(=O)N4CC(N5CCN(c6ccccn6)CC5)C4)ccc3o2)c1 [Compound 20, [2-(3-Methoxy-phenyl)-benzooxazol-5-yl]-[3-(4-pyridin-2-yl-piperazin-1-yl)-azetidin-1-yl]-methanone]
77.0 % MAFP	CCCc1cc2cc(C(=O)N3CC(N4CCN(c5ccccn5)CC4)C3)ccc2n1CC1CCCCC1 [Compound 28, (1-Cyclohexylmethyl-2-propyl-1H-indol-5-yl)-[3-(4-pyridin-2-yl-piperazin-1-yl)-azetidin-1-yl]-methanone]
47.3 % MAFP	CC(C)(C)c1nc2ccc(C(=O)N3CC(N4CCN(c5ccccn5)CC4)C3)cc2o1 [Compound 19, (2-tert-Butyl-benzooxazol-6-yl)-[3-(4-pyridin-2-yl-piperazin-1-yl)-azetidin-1-yl]-methanone]
25.9 % MAFP	COc1ccccc1N1CCN(C2CN(C(=O)c3ccc4c(c3)cc(COc3ccccc3)n4CC(C)C)C2)CC1 [Compound 17, (1-Isobutyl-2-phenoxymethyl-1H-indol-5-yl)-{3-[4-(2-methoxy-phenyl)-piperazin-1-yl]-azetidin-1-yl}-methanone]
142.0 % MAFP	Cn1c(CC2CCCC2)cc2cc(C(=O)N3CC(N4CCN(c5ccccn5)CC4)C3)ccc21 [Compound 12, (2-Cyclopentylmethyl-1-methyl-1H-indol-5-yl)-[3-(4-pyridin-2-yl-piperazin-1-yl)-azetidin-1-yl]-methanone]
68.8 % MAFP	O=C(c1cccc2nc(-c3ccc(F)cc3)oc12)N1CC(N2CCN(c3ccccn3)CC2)C1 [Compound 6, [2-(4-Fluoro-phenyl)-benzooxazol-7-yl]-[3-(4-pyridin-2-yl-piperazin-1-yl)-azetidin-1-yl]-methanone]
53.7 % MAFP	O=C(c1ccc2[nH]c(CC3CCCCC3)cc2c1)N1CC(N2CCN(c3ccccn3)CC2)C1 [Compound 14, (2-Cyclohexylmethyl-1H-indol-5-yl)-[3-(4-pyridin-2-yl-piperazin-1-yl)-azetidin-1-yl]-methanone]
79.5 % MAFP	COc1ccc(-c2nc3cccc(C(=O)N4CC(N5CCN(c6ccccn6)CC5)C4)c3o2)cc1 [Compound 7, [2-(4-Methoxy-phenyl)-benzooxazol-7-yl]-[3-(4-pyridin-2-yl-piperazin-1-yl)-azetidin-1-yl]-methanone]
93.5 % MAFP	CC(C)Cn1c(-c2ccccc2)cc2cc(C(=O)N3CC(N4CCN(c5ccccn5)CC4)C3)ccc21 [Compound 13, (1-Isobutyl-2-phenyl-1H-indol-5-yl)-[3-(4-pyridin-2-yl-piperazin-1-yl)-azetidin-1-yl]-methanone]
87.6 % MAFP	O=C(c1ccc2nc(C3CCCCC3)oc2c1)N1CC(N2CCN(c3ccccn3)CC2)C1 [Compound 2, (2-Cyclohexyl-benzooxazol-6-yl)-[3-(4-pyridin-2-yl-piperazin-1-yl)-azetidin-1-yl]-methanone]
37.0 % MAFP	CC(C)(C)Cn1c(C(C)(C)C)cc2cc(C(=O)N3CC(N4CCN(c5ccccn5)CC4)C3)ccc21 [Compound 26, [2-tert-Butyl-1-(2,2-dimethyl-propyl)-1H-indol-5-yl]-[3-(4-pyridin-2-yl-piperazin-1-yl)-azetidin-1-yl]-methanone]
134.6 % MAFP	O=C(c1ccc2c(c1)cc(Cc1ccccc1)n2CC1CCCCC1)N1CC(N2CCN(c3ccccn3)CC2)C1 [Compound 18, (2-Benzyl-1-cyclohexylmethyl-1H-indol-5-yl)-[3-(4-pyridin-2-yl-piperazin-1-yl)-azetidin-1-yl]-methanone]
160.1 % MAFP	CC(C)(C)Cn1c(-c2ccccc2)cc2cc(C(=O)N3CC(N4CCN(c5ccccn5)CC4)C3)ccc21 [Compound 10, [1-(2,2-Dimethyl-propyl)-2-phenyl-1H-indol-5-yl]-[3-(4-pyridin-2-yl-piperazin-1-yl)-azetidin-1-yl]-methanone]
72.9 % MAFP	CC(C)Cc1cc2cc(C(=O)N3CC(N4CCN(c5ccccn5)CC4)C3)ccc2n1CC(C)C [Compound 8, (1,2-Diisobutyl-1H-indol-5-yl)-[3-(4-pyridin-2-yl-piperazin-1-yl)-azetidin-1-yl]-methanone]
160.1 % MAFP	O=C(c1ccc2c(c1)cc(COc1ccccc1)n2CC1CCCCC1)N1CC(N2CCN(c3ccccn3)CC2)C1 [Compound 11, (1-Cyclohexylmethyl-2-phenoxymethyl-1H-indol-5-yl)-[3-(4-pyridin-2-yl-piperazin-1-yl)-azetidin-1-yl]-methanone]
76.3 % MAFP	COCC(=O)c1c(-c2ccc(C)cc2)[nH]c2ccc(C(=O)N3CC(N4CCN(c5ccccn5)CC4)C3)cc12 [Compound 27, 2-Methoxy-1-{5-[3-(4-pyridin-2-yl-piperazin-1-yl)-azetidine-1-carbonyl]-2-p-tolyl-1H-indol-3-yl}-ethanone]
58.8 % MAFP	COc1ccccc1N1CCN(C2CN(C(=O)c3ccc4c(c3)cc(-c3ccccc3)n4CC(C)(C)C)C2)CC1 [Compound 24, [1-(2,2-Dimethyl-propyl)-2-phenyl-1H-indol-5-yl]-{3-[4-(2-methoxy-phenyl)-piperazin-1-yl]-azetidin-1-yl}-methanone]
50.1 % MAFP	COc1ccccc1N1CCN(C2CN(C(=O)c3ccc4c(c3)cc(COc3ccccc3)n4CC(C)(C)C)C2)CC1 [Compound 22, [1-(2,2-Dimethyl-propyl)-2-phenoxymethyl-1H-indol-5-yl]-{3-[4-(2-methoxy-phenyl)-piperazin-1-yl]-azetidin-1-yl}-methanone]
57.6 % MAFP	COc1ccccc1Cc1nc2cc(C(=O)N3CC(N4CCN(c5ccccn5)CC4)C3)ccc2o1 [Compound 15, [2-(2-Methoxy-benzyl)-benzooxazol-5-yl]-[3-(4-pyridin-2-yl-piperazin-1-yl)-azetidin-1-yl]-methanone]
82.9 % MAFP	O=C(c1cccc2nc(-c3cccc(F)c3)oc12)N1CC(N2CCN(c3ccccn3)CC2)C1 [Compound 3, [2-(3-Fluoro-phenyl)-benzooxazol-7-yl]-[3-(4-pyridin-2-yl-piperazin-1-yl)-azetidin-1-yl]-methanone]
29.2 % MAFP	COc1ccccc1N1CCN(C2CN(C(=O)c3ccc4c(c3)cc(Cc3ccccc3)n4CC(C)C)C2)CC1 [Compound 21, (2-Benzyl-1-isobutyl-1H-indol-5-yl)-{3-[4-(2-methoxy-phenyl)-piperazin-1-yl]-azetidin-1-yl}-methanone]
65.8 % MAFP	CC(C)(C)Cn1c(-c2ccccc2)cc2cc(C(=O)N3CC(N4CCN(c5ccc(F)cc5)CC4)C3)ccc21 [Compound 25, [1-(2,2-Dimethyl-propyl)-2-phenyl-1H-indol-5-yl]-{3-[4-(4-fluoro-phenyl)-piperazin-1-yl]-azetidin-1-yl}-methanone]
84.5 % MAFP	COc1ccccc1N1CCN(C2CN(C(=O)c3ccc4c(c3)cc(Cc3ccccc3)n4CC3CCCCC3)C2)CC1 [Compound 23, (2-Benzyl-1-cyclohexylmethyl-1H-indol-5-yl)-{3-[4-(2-methoxy-phenyl)-piperazin-1-yl]-azetidin-1-yl}-methanone]
